Test in all cases: DTP human tumour cell line panel, 48 h
Experiment [1] has as its system SK-MEL-2 melanoma.
Experiment [2] concerns HCT-116 colon.
Experiment [3] has as its system PC-3 prostate.
In experiment [4] the test system is RXF 393 renal.
Experiment [5] deals with OVCAR-5 ovarian.
Experiment [6] concerns SF-295 CNS.
In experiment [7] the test system is UACC-257 melanoma.
Experiment [8] has as its system MDA-MB-435.
The test system of experiment [9] is BT-549 breast.
The test system of experiment [10] is K-562 leukemia.

We go through 19 molecules from PubChem BioAssay (NCI).

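The compound was tested at five concentrations on cells cultured in 96-well plates, with a 48-hour exposure period. At the GI50, growth is halved. TGI: total growth inhibition.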

On to `CCN1CCCn2c(=O)[nH]c3cc(Br)cc1c32`, for which the TGI (in general, the concentration giving total growth inhibition) is greater than 100 µM in experiment [1]; greater than 100 µM in [2]; greater than 100 µM in [3]; 54.6 µM in [4]; greater than 100 µM in experiment [5]; greater than 100 µM in experiment [6]. For the same molecule, the TGI in experiment [7], in [8], in experiment [9] and in [10] was greater than 100 µM in each case.
For the molecule `O=[N+]([O-])c1ccc2nc(/C=C(\O)c3ccc(Cl)cc3)c(/C=C(\O)c3ccc(Cl)cc3)nc2c1`, the TGI in experiment [1], in experiment [2], in experiment [3], in [4], in [5] and in experiment [6] was greater than 100 µM in each case. The TGI in [7], in [8], in experiment [9] and in experiment [10] was greater than 100 µM each time.
`Cc1cc2nc(-c3c(N)ncc(C#N)c3-c3ccc(Cl)cc3)[nH]c2cc1C`: the GI50 (usually the concentration at which growth is held to half of that of the control) in [1] is 20.4 µM; in experiment [2], 3.47 µM; in experiment [3] it was 6.59 µM; in experiment [4], 3.18 µM; in experiment [5] it was 14.7 µM; in [6], 10 µM. In addition, the GI50 in experiment [7] was 11.4 µM; in experiment [8] it was 26.2 µM; in experiment [9], 37.6 µM; in [10] it was 31.5 µM. Besides, the TGI in experiment [1] is greater than 100 µM; in experiment [2], 19.7 µM; in [3], 39.3 µM; in [4], 13.7 µM; in experiment [5] it was greater than 100 µM; in [6], 27.5 µM. In addition, the TGI in [7] was 82.6 µM; in experiment [8] it was greater than 100 µM; in experiment [9] it was greater than 100 µM; in experiment [10] it was greater than 100 µM.
For the molecule `C=CCOC1(CC=C)C(=O)OC2C(O)COC21O` (stereo not given), the TGI in [1], in [2], in experiment [3], in [4], in experiment [5] and in experiment [6] was greater than 100 µM each time. In addition, the total growth inhibition concentration (TGI) in experiment [7], in experiment [8], in experiment [9] and in experiment [10] was greater than 100 µM throughout.
Consider `COC1(OC)C=CC(=O)C=C1`, for which the concentration for total growth inhibition (TGI) in [1] is 21.5 µM; in experiment [2], 2.77 µM; in experiment [3], 13.9 µM; in experiment [4] it was 4.51 µM; in experiment [5], greater than 41.6 µM; in experiment [6] it was 23.9 µM. The TGI in experiment [7] was 8.48 µM; in experiment [8], 12.8 µM; in experiment [9] it was 14.2 µM; in experiment [10], greater than 100 µM.
As to `NC1c2c(Cl)sc(Cl)c2C(=O)C1O` (stereo not given), the TGI in experiment [1] is greater than 100 µM; in experiment [2], greater than 100 µM; in [3], greater than 100 µM; in experiment [4], 25.7 µM; in experiment [5], greater than 100 µM; in [6] it was greater than 100 µM. Further, the concentration for total growth inhibition (TGI) in experiment [7] is greater than 100 µM; in experiment [8], greater than 100 µM; in experiment [9], 47.6 µM; in experiment [10], greater than 100 µM.
As to `CC(=Nc1cc(Cl)cc(Cl)c1)c1ccncc1`, the TGI in experiment [1], in experiment [2], in experiment [3], in experiment [4], in experiment [5] and in experiment [6] was greater than 100 µM throughout. The TGI in [7], in experiment [8], in experiment [9] and in experiment [10] was greater than 100 µM throughout.
`CC(C#N)N(CCc1ccccc1)C(=O)c1ccccc1` (stereo not given): the TGI in experiment [1], in experiment [2], in [3], in experiment [4], in experiment [5] and in [6] was greater than 100 µM in each case. For the same molecule, the TGI in experiment [7], in experiment [8], in experiment [9] and in experiment [10] was greater than 100 µM throughout.
As for `N#C/C(=C1/c2cc([N+](=O)[O-])ccc2-c2c1cc([N+](=O)[O-])cc2[N+](=O)[O-])N1CCCCC1`, the TGI in experiment [1], in experiment [2], in experiment [3], in experiment [4], in [5] and in experiment [6] was greater than 100 µM in each case. Besides, the TGI in [7], in [8], in [9] and in [10] was greater than 100 µM in each case.
Regarding `COc1cc2c(cc1O)CCN(C)[C@H]2Cc1ccc(Oc2c(O)c(OC)cc3c2C[C@H]2c4c(c(OC)c(OC)c(OC)c4-3)CCN2C)cc1`, the total growth inhibition concentration (TGI) is 12.6 µM in experiment [1]; 7.98 µM in [2]; 8.9 µM in experiment [3]; 6.46 µM in experiment [4]; 13.2 µM in [5]; 11.3 µM in experiment [6]. In addition, the TGI in experiment [7] is 13.4 µM; in experiment [8] it was 8.7 µM; in [9], 11.8 µM; in experiment [10], 3.33 µM.
With `CC1=NN2C(=N)/C(=C/c3ccccc3)C(=O)N=C2S1`, the TGI in experiment [1], in experiment [2], in [3], in experiment [4], in experiment [5] and in experiment [6] was greater than 100 µM each time. Besides, the TGI in experiment [7], in experiment [8], in experiment [9] and in experiment [10] was greater than 100 µM each time.
As for `N#Cc1c(N2CCN(c3ccc([N+](=O)[O-])cc3)CC2)[n+](=O)c2ccc(-c3ccc([N+](=O)[O-])cc3)cc2n1[O-]`, the concentration for total growth inhibition (TGI) in experiment [1], in [2], in [3], in experiment [4], in [5] and in experiment [6] was greater than 100 µM each time. For the same molecule, the TGI in [7], in experiment [8], in [9] and in [10] was greater than 100 µM in each case.
On to `C=CCc1ccccc1C1CC2(C(=O)OC)OC1C(C(=O)OC)=C2C(=O)OC` (stereo not given), for which the TGI in [1], in experiment [2], in experiment [3], in [4], in experiment [5] and in [6] was greater than 10 µM throughout. The TGI in experiment [7], in experiment [8], in experiment [9] and in experiment [10] was greater than 10 µM each time.
With `CC(=O)O[C@H]1CCC2[C@@H]3CCC4NC(=O)C(C#N)C[C@]4(C)C3CC[C@@]21C` (stereo not given in full), the TGI in experiment [1], in experiment [2], in experiment [3], in [4], in experiment [5] and in experiment [6] was greater than 10 µM in each case. Moreover, the TGI in experiment [7], in experiment [8], in experiment [9] and in experiment [10] was greater than 10 µM each time.
As to `Cc1ccc(/C=N\NC(=O)c2ccncc2)s1`, the TGI in experiment [1], in [2], in experiment [3], in experiment [4], in experiment [5] and in experiment [6] was greater than 100 µM throughout. Moreover, the TGI in experiment [7], in experiment [8], in [9] and in experiment [10] was greater than 100 µM in each case.
For the molecule `CC1CN=C(c2ccc(CN3CCC(C4CCN(Cc5ccc(C6=NCC(C)N6)cc5)CC4)CC3)cc2)N1` (stereo not given), the TGI in [1] was 36 µM; in experiment [2], 34 µM; in experiment [3], 35.8 µM; in [4] it was 33.5 µM; in experiment [5], 65.1 µM; in [6], 43.2 µM. The TGI was 52.4 µM in [7], 51.6 µM in [8], greater than 100 µM in experiment [9] and 44.8 µM in experiment [10].
In the case of `O=C(NCCCCCCO)c1cccc2cc3ccccc3nc12`, the TGI was determined as 30.1 µM in experiment [1]; 33.1 µM in experiment [2]; 31.9 µM in experiment [3]; 37.7 µM in experiment [4]; 38.9 µM in [5]; 32.8 µM in [6]. The TGI in [7] was 33.9 µM; in experiment [8], 47.3 µM; in experiment [9], 33.2 µM; in [10], greater than 100 µM.
Take `CC1CN=C(c2ccc(-c3nc(-c4ccc(C5=NCC(C)N5)cc4)nc(N(C)C)n3)cc2)N1` (stereo not given): the total growth inhibition concentration (TGI) in [1] stood at 4.05 µM; in experiment [2], 3.16 µM; in experiment [3], 4.42 µM; in [4], 12.8 µM; in [5] it was 10.8 µM; in [6] it was 15.8 µM. The TGI in [7] came out at 8.76 µM; in [8], 3.09 µM; in experiment [9], 13.7 µM; in experiment [10] it was 6 µM.
`COc1ccccc1NC(=S)N/N=C/c1ccccn1`: the TGI in experiment [1] is 29.5 µM; in experiment [2], 0.639 µM; in experiment [3] it was greater than 46.4 µM; in experiment [4] it was 94.1 µM; in experiment [5] it was greater than 46.4 µM; in experiment [6] it was greater than 31.6 µM. For the same molecule, the TGI in experiment [7] was 0.416 µM; in experiment [8], greater than 46.4 µM; in experiment [9], 77 µM; in experiment [10], greater than 31.6 µM.
